Experimental data as given in publication PMC11356571, “The Comparative Metabolism of a Novel Hepatocellular Carcinoma Therapeutic Agent, 2,3-Diamino-N-(4-(benzo[d]thiazol-2-yl)phenyl)propanamide, in Human and Animal Hepatocytes” (Metabolites, 2024).
Structures can show the parent of a compound that is named as a salt.

What was measured:
Type in all cases: in vitro ADME
[1] = tested on: mouse hepatocytes; experiment: Metabolite characterization in mouse hepatocytes; details: mouse hepatocyte 1 h incubates of ETN101; ND:<1.2E+05 peak area
Protocol: (§1) We mixed 60 μL aliquots of 40 μM ETN101 in incubation medium and an equal volume of human, mouse, rat, dog, or monkey hepatocyte suspension in 96-well plates and incubated for 0 or 1 h in a CO2 incubator at 37 °C. The reactions were quenched by adding 120 µL of ice-cold acetonitrile to each well, and the cell suspension was sonicated for 5 min at 4 °C. Subsequently, centrifugation was carried out at 15,000× g for 10 min at 4 °C. Next, the supernatants were evaporated to dryness using a vacuum concentrator, and residues were re-dissolved in 70 μL of 30% acetonitrile. Each sample (5 μL aliquots) was analyzed using LC–HRMS system.
(§2) For metabolite characterization, a Vanquish HPLC system (Thermo Fisher Scientific, San José, CA, USA) coupled with a Q-Exactive Orbitrap mass spectrometer (Thermo Fisher Scientific Inc., Waltham, MA, USA) was used at Core Research Support Center for Natural Products and Medical Materials at Yeungnam University. […] The eluent from the column was directly injected into the mass spectrometer using a heated electrospray ionization (HESI) source in positive ionization mode. […] The spray voltage was 3.0 kV and the capillary temperature was 320 °C. Full scan MS^1 with a data-dependent MS^2 acquisition mode was applied to obtain MS^1 scan data ranging from m/z 80 to 900, at a resolution of 70,000, whereas data-dependent MS^2 spectra were acquired for the five most abundant peaks per cycle at a resolution of 35,000. The parallel reaction monitoring (PRM) mode was used to obtain the MS^2 spectra of putative metabolites detected at low peak intensities in the data-dependent MS^2 acquisition mode. Data were collected and interpreted using Thermo Scientific Xcalibur™ Software (Thermo Fisher Scientific).

[2] = tested on: rat hepatocytes; experiment: Metabolite characterization in rat hepatocytes; details: rat hepatocyte 1 h incubates of ETN101; ND:<1.2E+05 peak area
Protocol: as §1, §2

[3] = tested on: human hepatocytes; experiment: Metabolite characterization in human hepatocytes; details: human hepatocyte 1 h incubates of ETN101; ND:<1.2E+05 peak area
Protocol: as §1, §2

[4] = tested on: monkey hepatocytes; experiment: Metabolite characterization in monkey hepatocytes; details: monkey hepatocyte 1 h incubates of ETN101; ND:<1.2E+05 peak area
Protocol: as §1, §2

[5] = tested on: dog hepatocytes; experiment: Metabolite characterization in dog hepatocytes; details: dog hepatocyte 1 h incubates of ETN101; ND:<1.2E+05 peak area
Protocol: as §1, §2

Compound | Relative peak area (%) [1] [%] | Relative peak area (%) [2] [%] | Relative peak area (%) [3] [%] | Relative peak area (%) [4] [%] | Relative peak area (%) [5] [%]
CC(=O)Nc1ccc(-c2nc3ccccc3s2)cc1 [M2, N-Acetyl-CJM-126] | 0.9 | 5.7 | 0.3 | 5.8 | 
Nc1ccc(-c2nc3ccccc3s2)cc1O [M5, 3′-OH-CJM-126] | < 0.1 | < 0.1 | 0.1 | < 0.1 | < 0.1
O=C(O)[C@H]1O[C@@H](Nc2ccc(-c3nc4ccccc4s3)cc2)[C@H](O)[C@@H](O)[C@@H]1O [M9, CJM-126 glucuronide] | < 0.1 | 0.1 | 0.1 | < 0.1 | 0.5
O=S(=O)(O)Nc1ccc(-c2nc3ccccc3s2)cc1 [M10, CJM-126 sulfate] |  | < 0.1 |  |  | 
